From patent US20260138959A1, “QUINAZOLINE DERIVATIVE COMPOUND AND USE THEREOF” (VORONOI INC., priority 2021, published 2026) come the findings set out here.

Broadly, the IC50 is the concentration that gives 50% inhibition.

In one assay the test system is Ba/F3-c-KIT(D816V). The assay can be described thus: Proliferation inhibitory activity on Ba/F3 cell (CellTiter-Glo, 72 hours), c-KIT(D816V). The format is cell-based. To be noted: Mus musculus, BaF3, read-out: Ba/F3 (nM) c-KIT (D816V) (GI50 class). The gist of the method: (§1)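 Read-out: CellTiter-Glo after 72 h at 37 °C compound exposure, expressed as percent of vehicle-treated cells, GI50 calculated. Engineered Ba/F3 cells (3×10^3/well) received twelve 3-fold serial dilutions, final 0.00005–10 μM.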
For orientation: In ATP-based viability assays light output follows the ATP content of the culture.

A further assay addresses T1, human PDGFR-β(wt) (Homo sapiens, UniProt P09619).
T1 construct: purchased Signalchem P13-11G
Nature of the assay: Enzyme inhibitory activity, ADP-Glo kinase assay, PDGFR-β(wt). Type of assay: biochemical. To be noted: read-out: PDGFR-β (IC50 class). The gist of the method: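 Purified human kinases incubated with ATP and substrate 1–2 h at 25 °C in 40 mM Tris-HCl pH 7.4, 20 mM MgCl2, BSA, DTT, compound over 12 concentrations (10–0.00005645 μM final). ADP formed quantified by ADP-Glo luminescence; IC50 from inhibition versus DMSO control, reported in bins A–D.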
Background: ADP-Glo turns the ADP formed in a reaction into a luminescent signal.

A further assay has as its system Ba/F3-TEL-PDGFβ(WT). Nature of the assay: Proliferation inhibitory activity on Ba/F3 cell (CellTiter-Glo, 72 hours), PDGFR-β. The format is cell-based. To be noted: Mus musculus, BaF3, read-out: Ba/F3 (nM) Tel-PDGFRβ (GI50 class). How it is done: (§2) Ba/F3-TEL-PDGFRα(WT), Ba/F3-TEL-PDGFβ(WT), Ba/F3-c-KIT(D816V) (Kyinno, #KC-0138), c-KIT V560G/D816V, c-KIT D814Y were seeded at 3×10^3/100 μl/well in a clear bottom white 96-well plate. A culture solution containing compounds of 12 concentrations (0.00001-2 mM) serially diluted in 3 folds and the DMSO control group was added at 0.5 μl/well each to a final concentration of 0.00005-10 μM, and then incubated in a CO2 incubator at 37° C. for 72 hours. After 72 hours, the plate treated with the compound was taken out, CellTiter-Glo® Assay (Promega) solution was treated with 100 μl/well, followed by mixing well. After mixing well for about 10 minutes at room temperature, […] was measured using a microplate reader. The data were presented as percentages in proportion to treated cells based on the vehicle, GI50 (nM) values were calculated using GraphPad Prism 8.3.0 (GraphPad software Inc., San Diego).
(§3) The inhibitory activities of Ba/F3 expressing PDGFR-α, PDGFR-β, c-KIT(D816V), c-KIT V560G/D816V, and c-KIT D814Y measured as described above were measured and shown in Table 7 below (A: GI50≤200 nM; B: 200 nM<GI50≤500 nM; C: GI50>500 nM).

For a further assay, the system named is Ba/F3-TEL-PDGFRα(WT). Nature of the assay: Proliferation inhibitory activity on Ba/F3 cell (CellTiter-Glo, 72 hours), PDGFR-α. The format is cell-based. To be noted: Mus musculus, BaF3, read-out: Ba/F3 (nM) Tel-PDGFRα (GI50 class). How it is done:
as §2, §3

In the next assay the target is T2, human PDGFR-α(wt) (Homo sapiens, UniProt P16234).
T2 construct: purchased Signalchem P12-18G
The assay can be described thus: Enzyme inhibitory activity, ADP-Glo kinase assay, PDGFR-α(wt). The format is biochemical. To be noted: read-out: PDGFR-α (IC50 class). How it is done: In order to evaluate the inhibitory activity of the compounds synthesized according to the above examples on PDGFR-α(wt), PDGFR-β(wt), c-KIT(wt), and c-KIT(D816V) kinases, the following method was performed. The compounds of examples were reacted with purified human PDGFR-α(wt) (Signalchem #P12-18G) enzyme, human PDGFR-β(wt) (Signalchem #P13-11G) enzyme, human c-KIT(wt) (Signalchem #K06-11BG) enzyme, human c-KIT(D816V) (Signalchem #C06-12LG) enzyme, and the enzyme inhibitory abilities were evaluated by the following method.
The reaction buffer was used as a composition of 40 mM Tris-HCl pH7.4, 20 mM MgCl2, 0.5 mg/ml BSA, 50 μM DTT, and the reactions of all the tests were carried out on the reaction buffer. The compound was diluted in 12 steps using a serial dilution method from a 10 mM DMSO stock, and the enzyme activity was measured at a final compound concentration of 10˜0.00005645 μM. During the test, the enzyme activity was confirmed using in vitro ADP-Glo™ kinase assay (Promega) after reacting with the proper concentration of human PDGFR-α(wt) enzyme, human PDGFR-β(wt), human c-KIT(wt) enzyme, and human c-KIT(D816V) enzyme with purified ATP and enzyme substrate at 25° C. for 1˜2 hours. At a ratio of 2:2:1, an enzyme-active reaction solution, an ADP-Glo reaction solution, and an enzyme-active detection solution were reacted to measure the inhibition of the enzyme's activity with luminoscence. Based on the […] of the enzyme activity of the solvent control that was not treated with the compound, the degree of enzyme activity inhibition was calculated according to the treatment concentration of each compound, and the concentration of each compound that inhibits 50% of enzyme activity was determined as IC50 (nM) value and the value was obtained by using GraphPad Prism 8.3.0 (GraphPad software Inc., San Diego) software. (A: IC50≤50 nM; B: 50 nM<IC50≤100 nM; C: 100 nM<IC50≤500 nM; D: IC50>500 nM).

In a further assay the test system is c-KIT V560G/D816V. The assay can be described thus: Proliferation inhibitory activity on Ba/F3 cell (CellTiter-Glo, 72 hours), c-KIT V560G/D816V. Type of assay: cell-based. Conditions: Mus musculus, BaF3, c-KIT V560G/D816V cells, read-out: Cell (nM) c-KIT V560G/D816V (GI50 class). The gist of the method:
as §1

T2 sequence (P16234 24-1089): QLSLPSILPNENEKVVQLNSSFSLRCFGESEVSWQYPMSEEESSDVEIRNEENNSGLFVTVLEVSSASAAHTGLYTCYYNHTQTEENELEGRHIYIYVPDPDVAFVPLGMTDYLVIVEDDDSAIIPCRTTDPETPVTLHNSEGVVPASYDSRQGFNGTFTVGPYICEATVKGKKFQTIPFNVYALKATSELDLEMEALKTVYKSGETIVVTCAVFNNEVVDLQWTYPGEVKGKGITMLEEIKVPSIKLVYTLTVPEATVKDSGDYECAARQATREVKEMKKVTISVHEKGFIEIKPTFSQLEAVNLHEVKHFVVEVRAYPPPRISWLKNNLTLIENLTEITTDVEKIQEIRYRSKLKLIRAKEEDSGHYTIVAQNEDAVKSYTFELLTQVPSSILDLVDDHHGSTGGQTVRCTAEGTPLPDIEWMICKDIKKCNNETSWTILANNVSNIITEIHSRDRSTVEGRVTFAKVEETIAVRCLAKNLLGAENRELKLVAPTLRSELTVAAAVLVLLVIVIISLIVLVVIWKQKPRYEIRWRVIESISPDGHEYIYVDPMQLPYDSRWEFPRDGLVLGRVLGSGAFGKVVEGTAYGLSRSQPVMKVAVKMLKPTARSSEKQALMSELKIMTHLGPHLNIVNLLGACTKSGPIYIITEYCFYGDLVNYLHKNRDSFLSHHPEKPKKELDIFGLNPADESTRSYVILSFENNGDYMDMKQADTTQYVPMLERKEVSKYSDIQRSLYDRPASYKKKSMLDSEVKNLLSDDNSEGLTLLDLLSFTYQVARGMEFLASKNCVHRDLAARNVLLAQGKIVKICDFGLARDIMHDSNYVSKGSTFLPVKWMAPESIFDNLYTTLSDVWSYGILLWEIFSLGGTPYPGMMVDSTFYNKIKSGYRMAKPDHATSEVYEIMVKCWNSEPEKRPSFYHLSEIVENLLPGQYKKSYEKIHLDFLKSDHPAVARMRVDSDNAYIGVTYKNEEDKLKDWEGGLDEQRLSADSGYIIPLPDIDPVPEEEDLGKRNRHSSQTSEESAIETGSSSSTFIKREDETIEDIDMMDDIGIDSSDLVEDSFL
T1 sequence (P09619 33-1106): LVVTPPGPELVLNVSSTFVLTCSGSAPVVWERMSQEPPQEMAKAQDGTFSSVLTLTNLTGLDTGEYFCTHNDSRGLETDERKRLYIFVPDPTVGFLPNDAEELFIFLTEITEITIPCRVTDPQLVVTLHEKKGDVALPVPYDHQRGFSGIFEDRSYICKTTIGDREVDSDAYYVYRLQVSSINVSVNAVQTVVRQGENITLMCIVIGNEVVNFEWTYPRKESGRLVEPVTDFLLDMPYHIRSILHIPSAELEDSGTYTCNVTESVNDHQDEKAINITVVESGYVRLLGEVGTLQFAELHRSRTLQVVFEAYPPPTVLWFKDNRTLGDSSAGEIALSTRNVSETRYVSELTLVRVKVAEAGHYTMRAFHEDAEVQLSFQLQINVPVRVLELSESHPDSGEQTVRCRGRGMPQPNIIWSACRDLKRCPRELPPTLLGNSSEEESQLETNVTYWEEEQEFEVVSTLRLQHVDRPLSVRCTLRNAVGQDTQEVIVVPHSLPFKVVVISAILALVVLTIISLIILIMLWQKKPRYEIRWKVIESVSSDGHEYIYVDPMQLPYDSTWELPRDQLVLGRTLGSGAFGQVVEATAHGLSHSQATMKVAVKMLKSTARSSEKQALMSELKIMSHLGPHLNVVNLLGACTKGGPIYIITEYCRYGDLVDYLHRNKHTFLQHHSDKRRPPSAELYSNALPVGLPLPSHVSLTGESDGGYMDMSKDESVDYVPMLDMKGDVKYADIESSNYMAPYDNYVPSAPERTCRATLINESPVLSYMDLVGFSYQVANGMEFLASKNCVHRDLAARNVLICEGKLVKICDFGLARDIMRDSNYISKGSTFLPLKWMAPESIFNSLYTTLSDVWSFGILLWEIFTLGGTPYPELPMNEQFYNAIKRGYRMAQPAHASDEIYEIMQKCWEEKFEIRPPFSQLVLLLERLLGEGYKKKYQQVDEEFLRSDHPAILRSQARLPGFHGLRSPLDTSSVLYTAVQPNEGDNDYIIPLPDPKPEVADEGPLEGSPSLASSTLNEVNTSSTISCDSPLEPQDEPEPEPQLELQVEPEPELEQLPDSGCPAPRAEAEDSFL

`COc1cc2ncnc(-c3ccc(NC(=O)Cc4ccc(C(F)(F)F)cc4)cc3)c2cc1OCCCN1CC2(CCOCC2)C1` [Example 151, N-(4-(6-(3-(7-oxa-2-azaspiro[3.5]nonane-2-yl)propoxy)-7-methoxyquinazolin-4-yl)phenyl)-2-(4-(trifluoromethyl)phenyl)acetamide]: the GI50 with Ba/F3-c-KIT(D816V), in the assay with Ba/F3-TEL-PDGFβ(WT) and in the assay with Ba/F3-TEL-PDGFRα(WT) was at most 200 nM each time. The IC50 on human PDGFR-β(wt) and on human PDGFR-α(wt) was at most 50 nM in each case.
Take `COc1cc2c(-c3ccc(NC(=O)C(C)(N)c4ccc(F)cc4)cc3)ncnc2cc1OCC(C)C` (centres unmarked) [Example 10, 2-amino-2-(4-fluorophenyl)-N-(4-(7-isobutoxy-6-methoxyquinazolin-4-yl)phenyl)propanamide]: the GI50 in the assay with c-KIT V560G/D816V is over 500 nM; with Ba/F3-c-KIT(D816V) it was at most 200 nM; in the assay with Ba/F3-TEL-PDGFβ(WT) it was 200 to 500 nM; with Ba/F3-TEL-PDGFRα(WT), at most 200 nM. Further, the 50% inhibitory concentration (IC50) is 100 to 500 nM at human PDGFR-β(wt) and at most 50 nM on human PDGFR-α(wt).
For the compound `CCN1CC2(C1)CN(CCCOc1cc3c(-c4ccc(NC(=O)Cc5ccc(C(F)(F)F)cc5)cc4)ncnc3cc1OC)C2` [Example 149], the GI50 was over 500 nM in the assay with Ba/F3-c-KIT(D816V), at most 200 nM in the assay with Ba/F3-TEL-PDGFβ(WT) and at most 200 nM in the assay with Ba/F3-TEL-PDGFRα(WT). Besides, the half-inhibitory concentration (IC50) on human PDGFR-β(wt) and at human PDGFR-α(wt) was at most 50 nM each time.
Regarding `CCN1CCC(COc2cc3c(-c4ccc(NC(=O)Cc5ccc(C(F)(F)F)cc5)cc4)ncnc3cc2OC)CC1` [Example 147, N-(4-(6-((1-ethylpiperidin-4-yl)methoxy)-7-methoxyquinazolin-4-yl)phenyl)-2-(4-(trifluoromethyl)phenyl)acetamide], the GI50 with Ba/F3-c-KIT(D816V), with Ba/F3-TEL-PDGFβ(WT) and in the assay on Ba/F3-TEL-PDGFRα(WT) was at most 200 nM throughout. Also, the IC50 at human PDGFR-β(wt) and at human PDGFR-α(wt) was at most 50 nM throughout.
With `COc1cc2c(-c3ccc(NC(=O)Cc4ccc5c(c4)CCO5)cc3)ncnc2cc1OCCCN1CCN(C)CC1` [Example 85, 2-(2,3-dihydrobenzofuran-5-yl)-N-(4-(6-methoxy-7-(3-(4-methylpiperazin-1-yl)propoxy)quinazolin-4-yl)phenyl)acetamide], the GI50 was 200 to 500 nM with c-KIT V560G/D816V, at most 200 nM in the assay on Ba/F3-c-KIT(D816V), at most 200 nM with Ba/F3-TEL-PDGFβ(WT) and at most 200 nM in the assay with Ba/F3-TEL-PDGFRα(WT). Besides, the half-maximal inhibitory concentration (IC50) on human PDGFR-β(wt) and on human PDGFR-α(wt) was at most 50 nM throughout.
`COCCN1CCC(COc2cc3ncnc(-c4ccc(NC(=O)C(C)(C)c5ccc(F)cc5)cc4)c3cc2OC)CC1` [Example 89, 2-(4-fluorophenyl)-N-(4-(6-methoxy-7-((1-(2-methoxyethyl)piperidin-4-yl)methoxy)quinazolin-4-yl)phenyl)-2-methylpropanamide]: the GI50 in the assay on c-KIT V560G/D816V, in the assay on Ba/F3-TEL-PDGFβ(WT) and in the assay on Ba/F3-TEL-PDGFRα(WT) was at most 200 nM in each case. The half-maximal inhibitory concentration (IC50) at human PDGFR-β(wt) and at human PDGFR-α(wt) was at most 50 nM each time.
For `COc1cc2c(-c3ccc(NC(=O)Cc4ccsc4)cc3)ncnc2cc1OCCCN1CCN(C)CC1` [Example 84, N-(4-(6-methoxy-7-(3-(4-methylpiperazin-1-yl)propoxy)quinazolin-4-yl)phenyl)-2-(thiophene-3-yl)acetamide], the GI50 in the assay with c-KIT V560G/D816V, with Ba/F3-c-KIT(D816V), in the assay with Ba/F3-TEL-PDGFβ(WT) and with Ba/F3-TEL-PDGFRα(WT) was at most 200 nM throughout. The 50% inhibitory concentration (IC50) on human PDGFR-β(wt) and on human PDGFR-α(wt) was at most 50 nM each time.
Take `COCCOc1cc2ncnc(-c3ccc(NC(=O)C(C)(N)c4ccc(F)cc4)cc3)c2cc1OCCOC` (centres unmarked) [Example 58, 2-amino-N-(4-(6,7-bis(2-methoxyethoxy)quinazolin-4-yl)phenyl)-2-(4-fluorophenyl)propanamide]: the GI50 is over 500 nM with c-KIT V560G/D816V, at most 200 nM with Ba/F3-c-KIT(D816V), at most 200 nM with Ba/F3-TEL-PDGFβ(WT) and at most 200 nM with Ba/F3-TEL-PDGFRα(WT). For the same compound, the half-inhibitory concentration (IC50) on human PDGFR-β(wt) and at human PDGFR-α(wt) was at most 50 nM in each case.
For `CCN1CCC(COc2cc3ncnc(-c4ccc(NC(=O)C(C)(C)c5ccc(F)cc5)cc4)c3cc2OC)CC1` [Example 90, N-(4-(7-((1-ethylpiperidin-4-yl)methoxy)-6-methoxyquinazolin-4-yl)phenyl)-2-(4-fluorophenyl)-2-methylpropanamide], the GI50 in the assay on c-KIT V560G/D816V, in the assay on Ba/F3-TEL-PDGFβ(WT) and in the assay with Ba/F3-TEL-PDGFRα(WT) was at most 200 nM throughout. For the same compound, the concentration for half-maximal inhibition (IC50) on human PDGFR-β(wt) and at human PDGFR-α(wt) was at most 50 nM each time.
As to `COc1cc2ncnc(-c3ccc(NC(=O)Cc4ccc(F)cc4)cc3)c2cc1O` [Example 124, 2-(4-fluorophenyl)-N-(4-(6-hydroxy-7-methoxyquinazolin-4-yl)phenyl)acetamide], the half-maximal inhibitory concentration (IC50) on human PDGFR-β(wt) was 100 to 500 nM; on human PDGFR-α(wt), at most 50 nM. The GI50 in the assay on Ba/F3-TEL-PDGFβ(WT) and with Ba/F3-TEL-PDGFRα(WT) was at most 200 nM in each case.
For the compound `CCN1CCC(COc2cc3ncnc(-c4ccc(NC(=O)CCc5ccccc5)cc4)c3cc2OC)CC1` [Example 72, N-(4-(7-((1-ethylpiperidin-4-yl)methoxy)-6-methoxyquinazolin-4-yl)phenyl)-3-phenylpropanamide], the GI50 in the assay with c-KIT V560G/D816V, in the assay on Ba/F3-c-KIT(D816V), in the assay on Ba/F3-TEL-PDGFβ(WT) and in the assay with Ba/F3-TEL-PDGFRα(WT) was at most 200 nM each time. The IC50 on human PDGFR-β(wt) and on human PDGFR-α(wt) was at most 50 nM in each case.
